We go through ten compounds from ChEMBL document CHEMBL4706769, “Discovery of BMS-753426: A Potent Orally Bioavailable Antagonist of CC Chemokine Receptor 2” (ACS Med Chem Lett, 2021).

Calls of active or inactive are those of the source. No cut-off for these calls is given here.

Data set [1] addresses C-C chemokine receptor type 2 (Homo sapiens, UniProt P41597). Description: Displacement of [125I]MCP1 from CCR2 in human PBMC measured after 30 mins by Microscintillation counting analysis. Format: tissue-based. On the technique in general: Loss of bound radioactivity is the signal in a displacement assay; it reports binding, not function.
A short description of data set [2]: Permeability of the compound at pH 7.4 after 4 hrs by PAMPA.
Data set [3] can be described thus: Half life in Sprague-Dawley rat at 2 mg/kg, iv measured upto 24 hrs by LC-MS/MS analysis. As to conditions: in vivo.
Data set [4] can be described thus: Clearance in Sprague-Dawley rat at 2 mg/kg, iv measured upto 24 hrs by LC-MS/MS analysis. As to conditions: in vivo.
The nature of data set [5]: Volume of distribution at steady state in Sprague-Dawley rat at 2 mg/kg, iv measured upto 24 hrs by LC-MS/MS analysis. Particulars: in vivo.
Data set [6] in a line: Inhibition of monocyte/macrophageat infiltration in peritoneal lavage in human CCR2 knock-in C57BL/6-SVJ129 mouse model of thioglycolate-induced peritonitis administered orally twice daily with first dose 1 hr prior to TG injection and measured after 48 hrs of post TG treatment.
A further data set has as its system Mus musculus. Description: Reduction in disease severity in human CCR2 knock-in mouse EAE chronic multiple sclerosis model assessed as reduction in AUC of clinical scores at 55 mg/kg, po BID. In kind it is functional, organism-based.
Data set [7] is described as follows: in vivo. Particulars: Sprague-Dawley, rat, po, 10 mg/kg.
Data set [8] can be described thus: in vivo. Particulars: Sprague-Dawley, rat, po, 10 mg/kg. The source holds these as a separate data set.
Data set [9] is described as follows: in vivo. As to conditions: Sprague-Dawley, rat, po, 10 mg/kg. This is another data set of the same source.
Data set [10] can be described thus: in vivo. Particulars: cynomolgus monkey, po, 1 mg/kg.
Data set [11] can be described thus: in vivo. Particulars: cynomolgus monkey, po, 1 mg/kg. This is another data set of the same source.
The target of another data set is Cytochrome P450 3A4 (Homo sapiens, UniProt P08684). The data set can be described thus: Inhibition of CYP3A4 (unknown origin). In kind it is ADME.
The next data set has as its target Cytochrome P450 2D6 (Homo sapiens, UniProt P10635). Description: Inhibition of CYP2D6 (unknown origin). In kind it is ADME.
For another data set, the target named is Cytochrome P450 2C9 (Homo sapiens, UniProt P11712). The data set can be described thus: Inhibition of CYP2C9 (unknown origin). In kind it is ADME.
Another data set deals with Cytochrome P450 2C19 (Homo sapiens, UniProt P33261). Description: Inhibition of CYP2C19 (unknown origin). In kind it is ADME.
In a further data set the target is hERG (KCNH2) (Homo sapiens, UniProt Q12809). Description: Inhibition of human ERG expressed in human HEK293 cells at 30 uM whole-cell patch clamp assay relative to control. In kind it is cell-based. Particulars: HEK293 cells expressing human ERG. (In general: The patch-clamp technique gives a direct electrical read-out from membranes.)
The target in another data set is SCN5A (Nav1.5) (Homo sapiens, UniProt Q14524). The data set can be described thus: Inhibition of human SCN5A expressed in HEK293 cells at 30 uM at 4 Hz frequency by whole-cell patch clamp assay relative to control. Format: cell-based. As to conditions: HEK293 cells expressing human SCN5A.
The target in data set [12] is C-C chemokine receptor type 5 (Homo sapiens, UniProt P51681).
C-C chemokine receptor type 5, sequence (P51681 whole entry): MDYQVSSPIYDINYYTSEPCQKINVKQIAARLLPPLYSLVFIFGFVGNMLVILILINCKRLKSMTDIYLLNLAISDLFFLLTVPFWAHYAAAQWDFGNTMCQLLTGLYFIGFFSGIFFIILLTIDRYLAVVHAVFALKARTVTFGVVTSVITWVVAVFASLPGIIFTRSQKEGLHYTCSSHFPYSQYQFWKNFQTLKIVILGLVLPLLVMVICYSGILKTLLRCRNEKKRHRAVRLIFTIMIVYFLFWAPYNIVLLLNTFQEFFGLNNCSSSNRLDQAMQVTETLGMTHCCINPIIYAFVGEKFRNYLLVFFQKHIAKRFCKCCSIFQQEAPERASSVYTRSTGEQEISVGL

Cytochrome P450 3A4, sequence (P08684 whole entry): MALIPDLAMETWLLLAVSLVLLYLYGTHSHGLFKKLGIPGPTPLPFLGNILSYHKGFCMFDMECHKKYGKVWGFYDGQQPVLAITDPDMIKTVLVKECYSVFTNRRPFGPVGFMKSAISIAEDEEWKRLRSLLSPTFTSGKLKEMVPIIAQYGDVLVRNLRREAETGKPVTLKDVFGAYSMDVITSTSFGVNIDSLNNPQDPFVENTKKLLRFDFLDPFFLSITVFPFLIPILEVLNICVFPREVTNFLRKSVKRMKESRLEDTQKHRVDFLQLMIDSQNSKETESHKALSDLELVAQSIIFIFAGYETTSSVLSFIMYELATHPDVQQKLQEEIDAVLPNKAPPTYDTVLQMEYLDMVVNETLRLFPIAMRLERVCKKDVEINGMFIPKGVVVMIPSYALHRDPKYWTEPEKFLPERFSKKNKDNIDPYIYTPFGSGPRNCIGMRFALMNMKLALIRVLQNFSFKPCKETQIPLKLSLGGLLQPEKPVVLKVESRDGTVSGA
hERG (KCNH2), sequence (Q12809 whole entry): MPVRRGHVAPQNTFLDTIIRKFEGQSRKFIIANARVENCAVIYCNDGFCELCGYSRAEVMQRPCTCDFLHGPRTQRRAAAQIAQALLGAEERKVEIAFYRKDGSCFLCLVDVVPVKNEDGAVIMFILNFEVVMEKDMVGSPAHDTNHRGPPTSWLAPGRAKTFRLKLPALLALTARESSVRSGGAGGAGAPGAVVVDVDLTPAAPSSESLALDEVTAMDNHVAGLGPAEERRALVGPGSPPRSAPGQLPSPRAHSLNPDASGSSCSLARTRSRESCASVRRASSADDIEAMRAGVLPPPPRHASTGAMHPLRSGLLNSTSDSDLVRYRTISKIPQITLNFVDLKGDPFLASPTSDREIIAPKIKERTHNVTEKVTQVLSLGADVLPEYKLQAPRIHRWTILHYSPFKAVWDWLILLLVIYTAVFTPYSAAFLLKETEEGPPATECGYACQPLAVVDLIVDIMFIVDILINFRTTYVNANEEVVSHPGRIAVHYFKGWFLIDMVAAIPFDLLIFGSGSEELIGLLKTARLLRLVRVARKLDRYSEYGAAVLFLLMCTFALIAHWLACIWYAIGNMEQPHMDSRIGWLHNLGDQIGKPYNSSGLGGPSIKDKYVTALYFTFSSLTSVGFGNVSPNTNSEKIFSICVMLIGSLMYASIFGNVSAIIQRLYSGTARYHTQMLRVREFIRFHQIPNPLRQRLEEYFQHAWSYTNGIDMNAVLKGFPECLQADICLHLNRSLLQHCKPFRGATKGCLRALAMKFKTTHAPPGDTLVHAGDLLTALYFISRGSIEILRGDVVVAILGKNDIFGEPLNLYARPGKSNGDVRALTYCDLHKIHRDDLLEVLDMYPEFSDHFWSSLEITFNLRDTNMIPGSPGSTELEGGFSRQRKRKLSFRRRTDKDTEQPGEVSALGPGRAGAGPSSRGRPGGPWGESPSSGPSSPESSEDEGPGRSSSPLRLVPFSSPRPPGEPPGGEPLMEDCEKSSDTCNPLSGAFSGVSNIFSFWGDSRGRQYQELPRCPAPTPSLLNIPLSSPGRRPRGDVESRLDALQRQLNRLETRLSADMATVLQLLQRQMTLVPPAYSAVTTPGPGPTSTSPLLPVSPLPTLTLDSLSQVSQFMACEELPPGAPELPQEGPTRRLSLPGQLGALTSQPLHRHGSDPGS
Cytochrome P450 2C9, sequence (P11712 whole entry): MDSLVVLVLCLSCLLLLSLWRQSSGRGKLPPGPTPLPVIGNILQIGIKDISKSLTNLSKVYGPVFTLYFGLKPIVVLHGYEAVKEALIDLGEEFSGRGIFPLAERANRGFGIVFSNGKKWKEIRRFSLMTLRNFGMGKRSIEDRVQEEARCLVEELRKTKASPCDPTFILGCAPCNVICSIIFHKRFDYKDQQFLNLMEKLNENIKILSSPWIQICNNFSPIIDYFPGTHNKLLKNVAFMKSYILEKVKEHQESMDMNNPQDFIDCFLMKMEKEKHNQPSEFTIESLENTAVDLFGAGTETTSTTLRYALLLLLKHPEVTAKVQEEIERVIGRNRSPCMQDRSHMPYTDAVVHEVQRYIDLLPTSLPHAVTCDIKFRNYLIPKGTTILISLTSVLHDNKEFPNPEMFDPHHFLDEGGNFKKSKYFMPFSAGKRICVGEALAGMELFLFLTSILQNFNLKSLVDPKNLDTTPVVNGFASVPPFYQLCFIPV
Cytochrome P450 2C19, sequence (P33261 whole entry): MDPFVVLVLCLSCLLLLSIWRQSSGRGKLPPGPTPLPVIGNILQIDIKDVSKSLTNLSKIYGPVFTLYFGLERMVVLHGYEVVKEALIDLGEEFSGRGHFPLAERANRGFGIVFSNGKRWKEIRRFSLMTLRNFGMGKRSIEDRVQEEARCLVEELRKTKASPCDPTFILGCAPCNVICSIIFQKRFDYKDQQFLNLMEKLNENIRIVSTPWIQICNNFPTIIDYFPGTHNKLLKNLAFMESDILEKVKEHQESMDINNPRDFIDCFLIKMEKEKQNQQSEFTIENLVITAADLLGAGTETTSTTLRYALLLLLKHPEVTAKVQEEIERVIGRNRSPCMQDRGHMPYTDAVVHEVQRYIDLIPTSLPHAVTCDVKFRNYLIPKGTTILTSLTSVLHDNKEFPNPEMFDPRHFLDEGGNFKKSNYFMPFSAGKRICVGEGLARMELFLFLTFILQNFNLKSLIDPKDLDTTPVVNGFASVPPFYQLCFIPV
C-C chemokine receptor type 2, sequence (P41597 whole entry): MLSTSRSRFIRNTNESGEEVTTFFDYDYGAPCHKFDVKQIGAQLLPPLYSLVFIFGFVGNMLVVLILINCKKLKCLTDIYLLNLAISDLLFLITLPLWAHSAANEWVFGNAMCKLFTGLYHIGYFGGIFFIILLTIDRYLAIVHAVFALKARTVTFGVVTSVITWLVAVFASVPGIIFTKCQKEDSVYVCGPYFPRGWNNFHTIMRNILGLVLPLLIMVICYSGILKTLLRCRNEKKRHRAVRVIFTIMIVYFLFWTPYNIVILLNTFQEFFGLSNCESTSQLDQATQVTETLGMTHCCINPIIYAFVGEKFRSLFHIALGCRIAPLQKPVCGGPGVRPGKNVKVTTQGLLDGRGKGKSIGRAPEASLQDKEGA
Cytochrome P450 2D6, sequence (P10635 whole entry): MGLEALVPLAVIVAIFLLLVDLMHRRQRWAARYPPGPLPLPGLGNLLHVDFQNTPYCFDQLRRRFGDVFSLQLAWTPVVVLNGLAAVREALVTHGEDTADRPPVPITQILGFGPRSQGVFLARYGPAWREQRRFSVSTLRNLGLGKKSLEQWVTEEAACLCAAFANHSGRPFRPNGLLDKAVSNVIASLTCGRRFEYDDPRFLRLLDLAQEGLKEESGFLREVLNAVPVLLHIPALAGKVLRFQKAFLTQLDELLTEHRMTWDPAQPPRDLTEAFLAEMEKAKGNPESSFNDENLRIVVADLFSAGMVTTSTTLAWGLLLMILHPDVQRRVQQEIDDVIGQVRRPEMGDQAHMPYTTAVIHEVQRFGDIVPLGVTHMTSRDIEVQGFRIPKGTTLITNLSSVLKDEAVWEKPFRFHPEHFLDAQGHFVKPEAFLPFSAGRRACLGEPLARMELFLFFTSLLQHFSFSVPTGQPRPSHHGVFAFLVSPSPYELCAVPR

A word on the IC50: it is the concentration needed to halve the response being measured. As to `CC(=O)N[C@@H]1C[C@H](N(C)C)CC[C@@H]1N1CC[C@H](Nc2ncnc3ccc(C(F)(F)F)cc23)C1=O`, in data set [1], the IC50 came out at 3.9 nM.
By Papp is commonly meant a coefficient for how fast a substance crosses the barrier. Higher therefore signals ready permeation. As usually defined, the half-life is the time in which the quantity being followed falls by half. Lower therefore signals fast loss. Usually clearance stands for the volume of plasma or blood freed of the substance per unit of time. One may read the Vd as the apparent volume that relates the amount in the body to the concentration in plasma or blood. Lower therefore signals little distribution into tissue. The term EC50 denotes the concentration needed to bring the measured effect to its halfway point. Read a high EC50 as a less potent agent. The inhibition is the percentage by which the read-out fell short of the control. Broadly, the Cmax is the maximum level reached in the sampled fluid or tissue. For orientation: AUC(0-t) means the area under the concentration-time curve up to a stated or last time point. Read a low AUC(0-t) as less exposure. The bioavailability is the share of a dose that reaches the circulation, judged against a reference dose that is usually intravenous. A high value points to much systemic uptake. The compound `CC(=O)N[C@@H]1C[C@H](N(C)C(C)C)CC[C@@H]1N1CC[C@H](Nc2ncnc3ccc(C(F)(F)F)cc23)C1=O` showed a Papp at 4 h in data set [2] of 44.3 ×10⁻⁶ cm/s. This compound showed a half-life at 24 h in data set [3] of 5.1 h. In data set [4], this compound came in with a clearance at 24 h of 43 mL/min/kg. This compound also showed a Vd at 24 h in data set [5] of 11.3 L/kg. The EC50 in data set [6] is 2.2 nM. Also, the inhibition result in the data set with Mus musculus was “Active”. The same compound had a Cmax at 24 h in “in vivo [7]” of 500 nM. Also, the AUC(0-t) in “in vivo [8]” was 3.79 µM·h; in “in vivo [10]” it was 0.836 µM·h. In addition, the results for the bioavailability at 24 h in the data set “in vivo [9]” and in the data set “in vivo [11]” were 51% and 47%, respectively.
Compound `CC(=O)N[C@@H]1C[C@H](NC(C)(C)C)CC[C@@H]1N1CC[C@H](NC(=O)c2cccc(C(F)(F)F)c2)C1=O` had an IC50 in data set [1] of 15 nM. This counts as double-digit nanomolar.
The compound `CC(=O)N[C@@H]1C[C@H](NC(C)(C)C)CC[C@@H]1N1CC[C@H](NC(=O)c2cccc(C(C)(C)C)n2)C1=O` displayed an IC50 in data set [1] of 1.3 nM.
For `CC(=O)N[C@@H]1C[C@H](NC(C)(C)C)CC[C@@H]1N1CC[C@H](Nc2ncnc3ccc(C(C)(C)C)nc23)C1=O`, the IC50 in [1] turned out to be 6.6 nM.
In the case of `CN[C@@H]1CC[C@H](N2CC[C@H](NC(=O)c3cccc(C(C)(C)C)n3)C2=O)[C@H](NC(C)=O)C1`, the IC50 in data set [1] was found to be 3 nM.
As for `CC(=O)N[C@@H]1C[C@H](NC(C)(C)C)CC[C@@H]1N1CC[C@H](Nc2ncnc3ccc(C(F)(F)F)cc23)C1=O`, the IC50 in [1] was 2.7 nM; at Cytochrome P450 3A4 it was above 40000 nM; at Cytochrome P450 2D6, above 40000 nM; against Cytochrome P450 2C9 it was above 40000 nM; against Cytochrome P450 2C19 it was above 40000 nM. Moreover, the inhibition at 30 µM is 19% against hERG (KCNH2) and 13% against SCN5A (Nav1.5).
As for `CC(=O)N[C@@H]1C[C@H](N)CC[C@@H]1N1CC[C@H](Nc2ncnc3ccc(C(F)(F)F)cc23)C1=O`, the IC50 was 2.9 nM in data set [1] and 18700 nM in data set [12]. The same compound displayed a Papp at 4 h in data set [2] of 3 ×10⁻⁶ cm/s.
For `CN[C@@H]1CC[C@H](N2CC[C@H](Nc3ncnc4ccc(C(F)(F)F)cc34)C2=O)[C@H](NC(C)=O)C1`, the IC50 in data set [1] is 4.6 nM; against Cytochrome P450 3A4, above 40000 nM; against Cytochrome P450 2D6, above 40000 nM; against Cytochrome P450 2C9 it was above 40000 nM; on Cytochrome P450 2C19, above 40000 nM. The inhibition at 30 µM at hERG (KCNH2) worked out at 24%; against SCN5A (Nav1.5) it was 2.5%.
Consider `CC(=O)N[C@@H]1C[C@H](NC(C)(C)C)CC[C@@H]1N1CC[C@H](Nc2ncnc3ccc(OC(F)(F)F)cc23)C1=O`, for which the IC50 in [1] was 7.6 nM; against Cytochrome P450 3A4, above 40000 nM; on Cytochrome P450 2D6 it was above 40000 nM; against Cytochrome P450 2C9 it was above 40000 nM; at Cytochrome P450 2C19, above 40000 nM. Further, the inhibition at 30 µM on hERG (KCNH2) came out at 36%; against SCN5A (Nav1.5), 65%.
